US10292992B2, “Selective high-affinity polydentate ligands and methods of making such” (LAWRENCE LIVERMORE NATIONAL SECURITY, LLC, priority 2008, dated 2019)
“Also recorded” adds a separate entry of the source.

Legend:
Raji cells = test: 3-D confocal microscopy, Raji cells; format: cell-based, human; details: biotinylated reagent, 1 hr, 10 μM SHAL or 10 nM chLym-1
Experimental: (§1) SHAL binding and internalization by Raji and Jurkat's cells was assessed using the method described previously by O'Donnell et al. (O'Donnell et al. (1998) Prostate 37:91-97). Experiments were conducted comparing the binding of (DvLPBaPPP)2LLDo (the parent SHAL), its hexa-arginine analog (DvLPBaPPP)2LArg6AcLLDo, and chimeric Lym-1 (chLym-1) to Raji cells. All steps were performed at 20° C., unless indicated.
(§2) Four million Raji cells (>92% viability) in log phase growth were pelleted at 300×g, washed, and blocked for 30 min in 1 ml of 1% fraction V BSA in PBS, with constant rotation. Cells were then incubated 1 hr, at 1 million per 250 μl, with either 1% BSA in PBS or a biotinylated primary reagent: 10 nM chLym-1, 10 μM parent SHAL, or 10 μM hexa-arginine SHAL. After four washes (two in 1% BSA in PBS, two in PBS), 50 μl of the cell suspensions was applied to freshly poly-L-Lysine coated slides, and cells were allowed to adhere for 10 min in a humid chamber. Fixation and permeabilization were performed at −20° C. by using a 4 min exposure to methanol. Jurkat's cells were treated in the same manner as a control.
Slides were then washed twice in PBS and blocked in 10% fetaplex serum (Gemini Bioproducts, West Sacramento, Calif.) in PBS for 15 min and washed once in PBS. The detection reagent, Streptavidin AlexaFluor 610 (Invitrogen, Carlsbad, Calif.) was diluted 1/500 in diluent, 100 μl was applied; a parafilm cover slip was layered over the solution to prevent evaporation. The slides were incubated in a humid chamber for 30 min., washed 5 times for 5 min each in PBS, and rinsed briefly in double distilled H2O. After the slides dried, cover slips were mounted with ProlongGold with 4′,6-diamidino-2-phenylindole (DAPI, Invitrogen, Carlsbad, Calif.). The slides were viewed with an Olympus FV1000 laser scanning confocal microscope and data were collected as Z-scans at 160×, with focal sections being taken 1 μm apart through the cell.

[1] = tested on: Jurkat's cells (cells lacking HLA-DR10); test: 3-D confocal microscopy, Jurkat's cells; format: cell-based, human; details: biotinylated reagent, 1 hr
Experimental: as §1, §2
Slides were then washed twice in PBS and blocked in 10% fetaplex serum (Gemini Bioproducts, West Sacramento, Calif.) in PBS for 15 min and washed once in PBS. […]

[2] = Stability in human plasma by cellulose acetate electrophoresis; format: in vitro ADME; details: human plasma at 37° C. for 24 hrs; one preliminary CAE experiment
Text: Two forms of the free amine SHAL, (DvLPBaPPP)2LLA, and the hexa-arginine analog, (DvLPBaPPP)2LArg6AcLLA, were synthesized in multi-milligram amounts and purified by high performance liquid chromatography (HPLC). A biotin was attached to the ε-amino group of the terminal amine (A) on both (DvLPBaPPP)2LLA and (DvLPBaPPP)2LArg6AcLLA to produce biotinylated forms for use in cell and protein binding experiments. 1,4,7,10-tetraazacyclododecane-1,4,7,10-tetraacetic acid (DOTA) was attached to both (DvLPBaPPP)2LLA and (DvLPBaPPP)2LArg6AcLLA at the same site to enable the SHALs to be labeled with ^111In. The DOTA SHAL (DvLPBaPPP)2LLDo (FIG. 25A) and the hexa-arginine SHAL analog (DvLPBaPPP)2LArg6AcLLDo (FIG. 25B) were labeled with ^111In at high efficiency (>90%) with specific activities ranging from 70-85 μCi/μg SHAL. […] D-isomers of arginine incorporated during the synthesis of the hexa-arginine sequence in (DvLPBaPPP)2LArg6AcLLDo were used to minimize the proteolytic susceptibility of the peptide.

CC(=O)NC(CCCNC(=N)N)C(=O)NC(CCCNC(=N)N)C(=O)NC(CCCNC(=N)N)C(=O)NC(CCCNC(=N)N)C(=O)NC(CCCNC(=N)N)C(=O)NC(CCCNC(=N)N)C(=O)NCCCCC(NC(=O)C(CCCCNC(=O)COCCOCCNC(=O)COCCOCCNC(=O)COCCOCCNC(=O)C(CCCCNC(=O)COCCOCCNC(=O)c1ccc(NC(=O)C(CCCNC(=N)N)NC(=O)c2ccccc2)cc1)NC(=O)C(NS(=O)(=O)c1ccc(N=Nc2ccc(N(C)C)cc2)cc1)C(C)C)NC(=O)COCCOCCNC(=O)COCCOCCNC(=O)COCCOCCNC(=O)C(CCCCNC(=O)COCCOCCNC(=O)c1ccc(NC(=O)C(CCCNC(=N)N)NC(=O)c2ccccc2)cc1)NC(=O)C(NS(=O)(=O)c1ccc(N=Nc2ccc(N(C)C)cc2)cc1)C(C)C)C(=O)NC(CCCCNC(=O)CN1CCN(CC(=O)O)CCN(CC(=O)O)CCN(CC(=O)O)CC1)C(=O)O (stereo not drawn) [(DvLPBaPPP)2LArg6AcLLDo]
SHAL binding, uptake and localization in Raji cells (Raji cells): internalized
SHAL binding, uptake and localization in Raji cells (Raji cells; listed as hexa-arginine SHAL): localized in the nucleus; also recorded: significantly more; also recorded: associated with the nucleus
SHAL binding, uptake and localization in Raji cells (Raji cells; listed as hexa-arginine SHAL analog): associated with the nucleus
SHAL binding, uptake and localization in Raji cells (Raji cells; listed as hexa-arginine analog): marked cytoplasmic binding but also intranuclear targeting; also recorded: taken up and internalized
SHAL uptake in Jurkat's cells [1]: minimal SHAL uptake
degradation in human plasma [2]: no evidence of degradation
